Test results: US20250011330A1, “Imidazo[1,2- a]pyrazine and Imidazo[1,2- a]pyridine Based Tyrosyl-DNA Phosphodiesterase I (TDP1) Inhibitors” (The USA, As Represented by the Secretary, Department of …, priority 2021, published 2025)
Where two headings read alike, the source gives them in different places.

Experiments:
TDP2 = TDP2 (Homo sapiens (Human), UniProt O95551); assay: gel-based TDP2 fluorescence assay in vitro; assay type: biochemical; conditions: read-out: TDP2 IC50
Description: (§1) (TDP assay buffer: 50 mM Tris HCl, pH 7.5, 80 mM KCl, 2 mM EDTA, 1 mM DTT, 40 μg/ml BSA and 0.01% Tween-20. TDP1 (20 mg/mL in 25 mM Tris-HCl pH 7.2, 150 mM NaCl, 2 mM tris(2-carboxyethyl)phosphine) with 2 mL of well solution composed of 0.1 M MOPS/HEPES pH 7.5, 10% (w/v) PEG 8000, 20% (v/v) ethylene glycol, 0.03 M sodium fluoride, 0.03 M sodium bromide, 0.03 M sodium iodide, 0.03 M sodium bromide and sealed over […] well solution. AF647 labelling buffer: Tris-HCl (pH 7.2, 25 mM), NaCl (150 mM), and tris(2-carboxyethyl)phosphine hydrochloride (TCEP, 2 mM).)
(§2) (DNA only: Buffer+DMSO. DMSO only: Enzyme+DMSO. Drug: Enzyme+Drug, 25° C., 10 min+DNA, reaction at 25° C., 15 min.)

TDP1 = TDP1 (Homo sapiens (Human), UniProt Q9NUW8); assay: TDP1 gel-based in vitro fluorescence assay; assay type: biochemical; conditions: for IC50: read-out: TDP1 IC50
Chain of TDP1 (Q9NUW8 whole entry): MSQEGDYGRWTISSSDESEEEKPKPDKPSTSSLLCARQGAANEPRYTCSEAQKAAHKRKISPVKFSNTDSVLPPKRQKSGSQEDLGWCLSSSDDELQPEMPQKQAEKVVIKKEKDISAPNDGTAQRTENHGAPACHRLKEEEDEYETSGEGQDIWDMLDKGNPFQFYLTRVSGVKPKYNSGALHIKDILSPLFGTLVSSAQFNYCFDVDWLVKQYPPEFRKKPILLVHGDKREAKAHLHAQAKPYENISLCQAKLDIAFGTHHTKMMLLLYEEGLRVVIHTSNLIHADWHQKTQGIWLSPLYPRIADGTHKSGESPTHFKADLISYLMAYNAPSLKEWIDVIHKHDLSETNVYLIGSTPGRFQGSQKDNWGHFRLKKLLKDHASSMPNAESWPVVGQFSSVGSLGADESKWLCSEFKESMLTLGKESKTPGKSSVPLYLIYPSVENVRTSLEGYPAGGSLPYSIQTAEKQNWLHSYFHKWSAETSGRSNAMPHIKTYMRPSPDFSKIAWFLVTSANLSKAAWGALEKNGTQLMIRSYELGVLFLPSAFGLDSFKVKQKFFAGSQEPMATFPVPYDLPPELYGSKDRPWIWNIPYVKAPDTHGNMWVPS
Description: as §1, §2
Gel images were scanned using a Typhoon FLA 9500 scanner (GE Healthcare) and densitometric analyses were performed using the ImageQuant software (GE Healthcare). The IC50 of TDP1 inhibitors was calculated by comparing the percentage of cleavage product (5′Cy5-[…]-p-3′) to DMSO control.

[1] = Table 7, HPLC-purified oxime leads
[2] = Table 7, ratio of IC50 TDP2 to TDP1
[3] = Table 8, lead compounds with different linkers
[4] = Table 9, fluorosulfates and sulfonyl fluorides

Chain of TDP2 (O95551 whole entry, species assumed): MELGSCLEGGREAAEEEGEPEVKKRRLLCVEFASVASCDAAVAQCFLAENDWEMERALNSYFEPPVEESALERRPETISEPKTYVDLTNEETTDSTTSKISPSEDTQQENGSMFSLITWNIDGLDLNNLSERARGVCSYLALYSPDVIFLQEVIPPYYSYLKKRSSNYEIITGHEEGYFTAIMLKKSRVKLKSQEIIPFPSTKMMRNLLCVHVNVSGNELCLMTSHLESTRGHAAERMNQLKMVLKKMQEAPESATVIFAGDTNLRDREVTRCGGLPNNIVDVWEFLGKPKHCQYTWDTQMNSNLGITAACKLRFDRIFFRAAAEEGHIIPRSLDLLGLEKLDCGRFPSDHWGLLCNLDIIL

SMILES	IC50 (TDP2; Table 10, PROTACs)	IC50 (TDP1; Table 10, PROTACs)	IC50 (TDP2; [1])	FC (fold change) (TDP1; [2])	also measured
Cc1ncsc1-c1ccc(CNC(=O)[C@@H]2C[C@@H](O)CN2C(=O)[C@@H](NC(=O)COCCOCCOCCn2cc(-c3ccn4c(Nc5ccc(C(=O)O)cc5)c(-c5ccccc5)nc4c3)nn2)C(C)(C)C)cc1 [XZ683, 4-((7-(1-((S)-13-((2S,4R)-4-Hydroxy-2-((4-(4-methylthiazol-5-yl)benzyl)carbamoyl)pyrrolidine-1-carbonyl)-14,14-dimethyl-11-oxo-3,6,9-trioxa-12-azapentadecyl)-1H-1,2,3-triazol-4-yl)-2-phenylimidazo[1,2-a]pyridin-3-yl)amino)benzoic acid]	> 100 µM	> 100 µM	–	–	–
Cc1ncsc1-c1ccc(CNC(=O)[C@@H]2C[C@@H](O)CN2C(=O)[C@@H](NC(=O)COCCOCCOCCOCCn2cc(-c3ccn4c(Nc5ccc(C(=O)O)cc5)c(-c5ccccc5)nc4c3)nn2)C(C)(C)C)cc1 [XZ684, 4-((7-(1-((S)-16-((2S,4R)-4-Hydroxy-2-((4-(4-methylthiazol-5-yl)benzyl)carbamoyl)pyrrolidine-1-carbonyl)-17,17-dimethyl-14-oxo-3,6,9,12-tetraoxa-15-azaoctadecyl)-1H-1,2,3-triazol-4-yl)-2-phenylimidazo[1,2-a]pyridin-3-yl)amino)benzoic acid]	> 100 µM	> 100 µM	–	–	–
O=C(COc1cccc2c1C(=O)N(C1CCC(=O)NC1=O)C2=O)NCCCCn1cc(-c2ccn3c(Nc4ccc(C(=O)O)cc4)c(-c4ccccc4)nc3c2)nn1 (stereo not drawn) [XZ685, 4-((7-(1-(4-(2-((2-(2,6-dioxopiperidin-3-yl)-1,3-dioxoisoindolin-4-yl)oxy)acetamido)butyl)-1H-1,2,3-triazol-4-yl)-2-phenylimidazo[1,2-a]pyridin-3-yl)amino)benzoic acid]	> 100 µM	> 100 µM	–	–	–
O=C(COc1cccc2c1C(=O)N(C1CCC(=O)NC1=O)C2=O)NCCCCn1cc(COc2ccc(-c3nc4cc(-c5ccccc5)ccn4c3Nc3ccc(C(=O)O)cc3)cc2)nn1 (stereo not drawn) [XZ686, 4-((2-(4-((1-(4-(2-((2-(2,6-Dioxopiperidin-3-yl)-1,3-dioxoisoindolin-4-yl)oxy)acetamido)butyl)-1H-1,2,3-triazol-4-yl)methoxy)phenyl)-7-phenylimidazo[1,2-a]pyridin-3-yl)amino)benzoic acid]	> 100 µM	> 100 µM	–	–	–
O=C(COc1cccc2c1C(=O)N(C1CCC(=O)NC1=O)C2=O)NCCCCn1cc(COc2ccc(-c3nc4ccccn4c3Nc3ccc(C(=O)O)cc3)cc2)nn1 (stereo not drawn) [XZ688, 4-((2-(4-((1-(4-(2-((2-(2,6-Dioxopiperidin-3-yl)-1,3-dioxoisoindolin-4-yl)oxy)acetamido)butyl)-1H-1,2,3-triazol-4-yl)methoxy)phenyl)imidazo[1,2-a]pyridin-3-yl)amino)benzoic acid]	> 100 µM	> 100 µM	–	–	–
O=C(COc1cccc2c1C(=O)N(C1CCC(=O)NC1=O)C2=O)NCCCCn1cc(-c2ccc(-c3nc4ccccn4c3Nc3ccc(C(=O)O)cc3)cc2)nn1 (stereo not drawn) [XZ689, 4-((2-(4-(1-(4-(2-((2-(2,6-dioxopiperidin-3-yl)-1,3-dioxoisoindolin-4-yl)oxy)acetamido)butyl)-1H-1,2,3-triazol-4-yl)phenyl)imidazo[1,2-a]pyridin-3-yl)amino)benzoic acid]	> 100 µM	> 100 µM	–	–	–
Cc1cncc(Oc2ccc(/C=N/OCc3ccc(-c4nc5cc(-c6ccccc6)ccn5c4Nc4ccc(C(=O)O)cc4)cc3)cc2)n1 [XZ704, (E)-4-((2-(4-((((4-((6-methylpyrazin-2-yl)oxy)benzylidene)amino)oxy)methyl)phenyl)-7-phenylimidazo[1,2-a]pyridin-3-yl)amino)benzoic acid]	–	–	> 100 µM	>1	–
O=C(O)c1ccc(Nc2c(-c3ccc(CO/N=C/c4ccc(-c5ccccc5)cc4)cc3)nc3cc(-c4ccccc4)ccn23)cc1 [XZ705, (E)-4-((2-(4-(((([1,1′-Biphenyl]-4-ylmethylene)amino)oxy)methyl)phenyl)-7-phenylimidazo[1,2-a]pyridin-3-yl)amino)benzoic acid]	–	–	> 100 µM	>2	–
Cc1cncc(Oc2ccc(/C=N/OCc3ccc4nc(-c5ccccc5)c(Nc5ccc(C(=O)O)cc5)n4c3)cc2)n1 [XZ707, (E)-4-((6-((((4-((6-methylpyrazin-2-yl)oxy)benzylidene)amino)oxy)methyl)-2-phenylimidazo[1,2-a]pyridin-3-yl)amino)benzoic acid]	–	–	> 100 µM	–	IC50 (TDP1; [1]): > 100 µM
O=C(O)c1ccc(Nc2c(-c3ccc(CO/N=C\c4ccc(-c5cnccn5)cc4)cc3)nc3cc(-c4ccccc4)ccn23)cc1 [XZ709, (Z)-4-((7-Phenyl-2-(4-((((4-(pyrazin-2-yl)benzylidene)amino)oxy)methyl)phenyl)imidazo[1,2-a]pyridin-3-yl)amino)benzoic acid]	–	–	> 100 µM	>2	–
O=C(O)c1ccc(Nc2c(-c3ccc(CO/N=C\c4ccc(N5CCCC5=O)cc4)cc3)nc3cc(-c4ccccc4)ccn23)cc1 [XZ710, (Z)-4-((2-(4-((((4-(2-Oxopyrrolidin-1-yl)benzylidene)amino)oxy)methyl)phenyl)-7-phenylimidazo[1,2-a]pyridin-3-yl)amino)benzoic acid]	–	–	> 100 µM	>13	–
Cc1cncc(Oc2ccc(/C=N\OCc3ccc(-c4nc5cc(-c6ccccc6)ccn5c4Nc4ccc(C(=O)O)cc4)cc3)cc2)n1 [XZ711, (Z)-4-((2-(4-((((4-((6-methylpyrazin-2-yl)oxy)benzylidene)amino)oxy)methyl)phenyl)-7-phenylimidazo[1,2-a]pyridin-3-yl)amino)benzoic acid]	–	–	> 100 µM	>2	–
O=C(O)c1ccc(Nc2c(-c3ccc(CO/N=C\c4ccc(-c5ccccc5)cc4)cc3)nc3cc(-c4ccccc4)ccn23)cc1 [XZ712, (Z)-4-((2-(4-(((([1,1′-Biphenyl]-4-ylmethylene)amino)oxy)methyl)phenyl)-7-phenylimidazo[1,2-a]pyridin-3-yl)amino)benzoic acid]	–	–	> 100 µM	>2	–
N#Cc1ccc(-c2ccc(/C=N\OCc3ccc4nc(-c5ccccc5)c(Nc5ccc(C(=O)O)cc5)n4c3)cc2)nc1 [XZ717, (Z)-4-((6-((((4-(5-Cyanopyridin-2-yl)benzylidene)amino)oxy)methyl)-2-phenylimidazo[1,2-a]pyridin-3-yl)amino)benzoic acid]	–	–	> 100 µM	>2	IC50 (TDP1; [1]): 50.3 ± 10.7 µM
N#Cc1ccc(-c2ccc(Cn3cc(COc4ccc(-c5nc6ccccn6c5Nc5ccc(C(=O)O)cc5)cc4)nn3)cc2)nc1 [XZ721, 4-((2-(4-((1-(4-(5-Cyanopyridin-2-yl)benzyl)-1H-1,2,3-triazol-4-yl)methoxy)phenyl)imidazo[1,2-a]pyridin-3-yl)amino)benzoic acid]	–	–	–	–	IC50 (TDP2; [3]): > 100 µM; IC50 (TDP1; [3]): 60 ± 17 µM; FC (fold change) (TDP1; Table 8, ratio of IC50 TDP2 to TDP1): >1
O=C(O)c1ccc(Nc2c(-c3ccc(OS(=O)(=O)F)cc3)nc3cc(-c4ccccc4)ccn23)cc1 [XZ728, 4-((2-(4-((Fluorosulfonyl)oxy)phenyl)-7-phenylimidazo[1,2-a]pyridin-3-yl)amino)benzoic acid]	–	–	–	–	IC50 (TDP2; [4]): > 100 µM; IC50 (TDP1; [4]): > 100 µM
O=C(O)c1ccc(Nc2c(-c3cccc(OS(=O)(=O)F)c3)nc3cc(-c4ccccc4)ccn23)cc1 [XZ729, 4-((2-(3-((Fluorosulfonyl)oxy)phenyl)-7-phenylimidazo[1,2-a]pyridin-3-yl)amino)benzoic acid]	–	–	–	–	IC50 (TDP2; [4]): > 100 µM; IC50 (TDP1; [4]): > 100 µM
O=C1CCC(N2C(=O)c3cccc(NCCCCCCNCc4ccc(-c5nc6cc(-c7ccccc7)ccn6c5Nc5ccc(C(=O)O)cc5)cc4)c3C2=O)C(=O)N1 (stereo not drawn) [XZ742, 4-((2-(4-(((6-((2-(2,6-Dioxopiperidin-3-yl)-1,3-dioxoisoindolin-4-yl)amino)hexyl)amino)methyl)phenyl)-7-phenylimidazo[1,2-a]pyridin-3-yl)amino)benzoic acid]	> 100 µM	> 100 µM	–	–	–
O=C1CCC(N2C(=O)c3cccc(OCCOCCOCc4cn(Cc5ccc(-c6nc7cc(-c8ccccc8)ccn7c6Nc6ccc(C(=O)O)cc6)cc5)nn4)c3C2=O)C(=O)N1 (stereo not drawn) [XZ743, 4-((2-(4-((4-((2-(2-((2-(2,6-Dioxopiperidin-3-yl)-1,3-dioxoisoindolin-4-yl)oxy)ethoxy)ethoxy)methyl)-1H-1,2,3-triazol-1-yl)methyl)phenyl)-7-phenylimidazo[1,2-a]pyridin-3-yl)amino)benzoic acid]	> 100 µM	> 100 µM	–	–	–
O=C1CCC(N2C(=O)c3cccc(NCCc4cn(Cc5ccc(-c6nc7cc(-c8ccccc8)ccn7c6Nc6ccc(C(=O)O)cc6)cc5)nn4)c3C2=O)C(=O)N1 (stereo not drawn) [XZ749, 4-((2-(4-((4-(2-((2-(2,6-Dioxopiperidin-3-yl)-1,3-dioxoisoindolin-4-yl)amino)ethyl)-1H-1,2,3-triazol-1-yl)methyl)phenyl)-7-phenylimidazo[1,2-a]pyridin-3-V)amino)benzoic acid]	16.8 ± 0.3 µM	12.3 ± 1.5 µM	–	–	–
